Converted amounts (≈) assume the structure as drawn. Blank lines part the entries; values can stand above or below the molecule they belong to.
Key:
Biorelevant solubility = assay type: physicochemical; details: 37 °C, biorelevant media pH 6.5 (3 mM taurocholate, 0.75 mM phospholipids), mean ± SD, n = 3
Experimental: The media utilized in this experiment were composed of 2 mM Tris-maleate, 150 mM NaCl, and 1.06 mM CaCl2. The pH of the media was adjusted to pH 6.5. The media were supplemented with FaSSIF powder a day prior to the experiment, resulting in a composition of the final biorelevant media of 3 mM taurocholate and 0.75 mM phospholipids. This final solution will be referred to as the “biorelevant media” throughout this paper. The biorelevant media was left at room temperature at least 2 h prior to usage. […] The suspensions were placed in an oven at 37 °C and were stirred at 200 rpm. Samples were taken at time points of 3, 6, and 24 h and centrifuged at 21,380g (Mikro 200 R, Hettich GmbH, Germany) for 30 min at 37 °C. The resulting supernatant was transferred to a new sample tube and centrifuged again under identical conditions. Samples were diluted 1:10 (v/v) with the mobile phase before analysis. The samples were analyzed using an Agilent 1200 series HPLC system (Agilent Technology Inc., United States) via HPLC, as described above.

[1] = In vitro lipolysis (dispersion and digestion) of LBFs; assay type: physicochemical
Experimental: The LBFs were assayed using the in vitro lipolysis method[25] to assess the potential for formulations containing dissolved lipophilic salt to maintain the drug in a solubilized state as the formulation is dispersed and digested under simulated gastrointestinal conditions. Formulations utilized in this experiment were loaded at 80% equilibrium solubility as per Section 2.2.6, at drug doses outlined in Table 3.
The in vitro lipolysis experiments were performed using a pH stat apparatus (Metrohm AG, Herisau, Switzerland) comprising an 836 Titando, an 804 Ti Stand, a pH electrode (Metrohm), and two 800 Dosino 20 mL dosing units. The system was operated by Tiamo 2.5 software (Metrohm). The biorelevant medium described in Section 2.2.8 was used for this experiment. The pancreatin extract (8× USP) was reconstituted immediately prior to use by adding 5 mL of the biorelevant medium to 1 g of pancreatin, vortexed thoroughly, and centrifuged at 4000g for 15 min at 4 °C (Centrifuge 5702 R, Eppendorf, Germany); 4 mL of the resulting supernatant was recovered and immediately stored on ice before further usage. […] The amount of NaOH dispensed was recorded by the system and used to assess the rate and extent of digestion. […] As the formulation is a type III-A formulation, ultracentrifugation was not required as the lipids should readily disperse within the biorelevant medium.[25] […]

[2] = cited from earlier work
[3] = Equilibrium solubility studies in lipid excipients / LBFs; assay type: physicochemical; details: 37 °C, venetoclax free base equivalents
Experimental: Samples were stirred at 200 rpm (Mixdrive 15 2MAG, Germany) at 37 °C. Samples were withdrawn after 24, 48, and 72 h, followed by centrifugation at 21,000g (Mikro 200R Andreas Hettich GmbH & Co. KG, Germany) for 30 min. The supernatant was extracted and centrifuged again under identical conditions. The resulting supernatant was solubilized 1:10 v/v in a mixture of acetonitrile and ethyl acetate (1:4 v/v), followed by a further 1:10 v/v dilution in acetonitrile and ethyl acetate (4:1 v/v). Samples were analyzed by HPLC as per the method above. All samples were analyzed in triplicate.

[4] = Saturation during in vitro testing (saturation ratio); assay type: physicochemical; details: all cases: medium- and long-chain LBFs, after dispersion and digestion
Experimental: The degree of saturation of drug concentrations in the aqueous phase during the in vitro lipolysis experiment was measured by comparing the measured aqueous phase concentration to the equilibrium drug solubility in samples containing dispersed and digested nondrug loaded formulations under identical conditions. Excess drug or lipophilic salt was added to 2 mL samples of the blank aqueous phase and stirred at 37 °C for 24 h. Samples were withdrawn, centrifuged, and analyzed under conditions identical to those in Section 2.2.9. […] Saturation ratios were evaluated at the end of the dispersion phase and the end of the digestion phase.

- biorelevant solubility (Biorelevant solubility): 7.7 ± 0.6 µg/mL
SMILES: CC1(C)CCC(CN2CCN(c3ccc(C(=O)NS(=O)(=O)c4ccc(NCC5CCOCC5)c([N+](=O)[O-])c4)c(Oc4cnc5[nH]ccc5c4)c3)CC2)=C(c2ccc(Cl)cc2)C1.CCCCCCCCOS(=O)(=O)O [venetoclax octyl sulfate]

- biorelevant solubility (Biorelevant solubility): 7.4 ± 0.7 µg/mL
SMILES: CC1(C)CCC(CN2CCN(c3ccc(C(=O)NS(=O)(=O)c4ccc(NCC5CCOCC5)c([N+](=O)[O-])c4)c(Oc4cnc5[nH]ccc5c4)c3)CC2)=C(c2ccc(Cl)cc2)C1.CCCCCCCCS(=O)(=O)O [venetoclax octanesulfonate]

- concentration of venetoclax in the aqueous phase ([1]; LBFs loaded with free base, dispersion and digestion): < 50 µg/mL
- dose precipitated ([1]; medium- and long-chain formulations): greater than 80%
- solubility (Biorelevant solubility; biorelevant media (FaSSIF-supplemented Tris-maleate buffer), fassif, thermodynamic from solid): 5.5 ± 1 µg/mL (≈ 6.33 µM)
SMILES: CC1(C)CCC(CN2CCN(c3ccc(C(=O)NS(=O)(=O)c4ccc(NCC5CCOCC5)c([N+](=O)[O-])c4)c(Oc4cnc5[nH]ccc5c4)c3)CC2)=C(c2ccc(Cl)cc2)C1 [venetoclax]
- solubility in medium- and long-chain triglycerides [2]: < 1000 µg/mL

- biorelevant solubility (Biorelevant solubility): 10.3 ± 0.8 µg/mL
SMILES: CC1(C)CCC(CN2CCN(c3ccc(C(=O)NS(=O)(=O)c4ccc(NCC5CCOCC5)c([N+](=O)[O-])c4)c(Oc4cnc5[nH]ccc5c4)c3)CC2)=C(c2ccc(Cl)cc2)C1.CCCCCCCCCCOS(=O)(=O)O [venetoclax decyl sulfate]

- apparent equilibrium solubility in long-chain LBF [3]: > 25 mg/g
- apparent equilibrium solubility in medium-chain LBF [3]: > 50 mg/g
- biorelevant solubility (Biorelevant solubility): 9.8 ± 1.4 µg/mL
SMILES: CC1(C)CCC(CN2CCN(c3ccc(C(=O)NS(=O)(=O)c4ccc(NCC5CCOCC5)c([N+](=O)[O-])c4)c(Oc4cnc5[nH]ccc5c4)c3)CC2)=C(c2ccc(Cl)cc2)C1.CCCCCCCCCCCCS(=O)(=O)O [venetoclax dodecanesulfonate]

- saturation ratio [4]: < 10.3
- apparent equilibrium solubility in long-chain LBF [3]: > 25 mg/g
- apparent equilibrium solubility in medium-chain LBF [3]: > 50 mg/g
- biorelevant solubility (Biorelevant solubility): 16.2 ± 1.6 µg/mL
SMILES: CC1(C)CCC(CN2CCN(c3ccc(C(=O)NS(=O)(=O)c4ccc(NCC5CCOCC5)c([N+](=O)[O-])c4)c(Oc4cnc5[nH]ccc5c4)c3)CC2)=C(c2ccc(Cl)cc2)C1.CCCCC(CC)COC(=O)CC(C(=O)OCC(CC)CCCC)S(=O)(=O)O [venetoclax docusate]

- biorelevant solubility (Biorelevant solubility): 8.4 ± 0.7 µg/mL
SMILES: CC1(C)CCC(CN2CCN(c3ccc(C(=O)NS(=O)(=O)c4ccc(NCC5CCOCC5)c([N+](=O)[O-])c4)c(Oc4cnc5[nH]ccc5c4)c3)CC2)=C(c2ccc(Cl)cc2)C1.CCCCCCCCCCCCCCCCCCOS(=O)(=O)O [venetoclax octadecyl sulfate]
